Data on one sequence can be found in US11077177B2, “Universal cancer vaccine” (priority 2016, dated 2021).

One test has as its system CD 8+ T cell repertoire. Nature of the test: Tetramer staining of peripheral blood mononuclear cells by flow cytometry after immunization with an altered peptide (FIG. 3B). The test is classed as cell-based.
The test system of test [1] is HLA molecule (types A1, A2, A3, A11, A24, B7 and B44). As to the kind of experiment: HLA type bound by altered telomerase peptides (Table 1). It is filed as binding, human. The following applies: MHC class I HLA type bound by the peptide; no test method described; listed as SEQ ID NO: 13.

Turning to “YLFFYRKSV (listed as Homo sapiens) [SEQ ID 13]”, in the test on CD 8+ T cell repertoire, the “expansion of CD 8+ T cell repertoire cross-reacting with the naturally occurring peptide” value was “this approach is feasible”. For the same sequence, in test [1], the “HLA TYPE BOUND” value is recorded as “HLA-A2”.
